Where two headings read alike, the source gives them in different places.
Assays:
Assay type in all cases: in vivo
[1] = test system: ragweed (common ragweed, Ambrosia elatior); assay: Test A postemergence; conditions: Ambrosia artemisiifolia, post-emergence, 240 h, 125 g ai/ha
How it was run: (§1)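 In a loam soil and sand blend, planted seeds got a preemergence directed soil spray, and young plants at the one- to two-leaf stage, 2–10 cm high, got a postemergence application; ~10 d greenhouse hold; injury rated visually, 0 = none, 100 = complete control.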

[2] = test system: barnyardgrass (Echinochloa crus-galli); assay: Test A postemergence; conditions: Echinochloa crus-galli, post-emergence, 240 h, 125 g ai/ha
How it was run: as §1

[3] = test system: Galium (catchweed bedstraw, Galium aparine); assay: Test A postemergence; conditions: Galium, post-emergence, 240 h, 125 g ai/ha
How it was run: as §1

[4] = test system: pigweed (Amaranthus retroflexus); assay: Test A postemergence; conditions: Amaranthus retroflexus, post-emergence, 240 h, 125 g ai/ha
How it was run: as §1

[5] = test system: blackgrass (Alopecurus myosuroides); assay: Test A postemergence; conditions: Alopecurus myosuroides, post-emergence, 240 h, 125 g ai/ha
How it was run: as §1

Kochia (Kochia scoparia) = assay: Test A postemergence; conditions: Bassia scoparia, post-emergence, 240 h, 125 g ai/ha
How it was run: as §1

[6] = test system: giant foxtail (Setaria faberii); assay: Test A postemergence; conditions: Setaria faberi, post-emergence, 240 h, 125 g ai/ha
How it was run: as §1

corn (Zea mays) = assay: Test A postemergence; conditions: Zea mays, post-emergence, 240 h, 125 g ai/ha; for Corn plant response rating (crop injury, 0 = no effect, 100 = complete kill) at 125 g/ha: Postemergence, visual injury after approximately 10 d, 0 to 100 scale where 0 is no effect and 100 is complete control; for plant injury at 125 g/ha: postemergence, visual injury rating after approximately 10 d, read-out: Corn plant response rating (0 to 100 scale, 0 no effect, 100 complete control)
How it was run: as §1

[7] = test system: wheat (Triticum aestivum); assay: Test A postemergence; conditions: Triticum aestivum, post-emergence, 240 h, 125 g ai/ha
How it was run: as §1

[8] = test system: ryegrass, Italian (Italian ryegrass, Lolium multiflorum); assay: Test A postemergence; conditions: Lolium multiflorum, post-emergence, 240 h, 125 g ai/ha
How it was run: as §1

[9] = test system: pigweed (Amaranthus retroflexus); assay: Test A preemergence; conditions: Amaranthus retroflexus, pre-emergence, 240 h; for pest or weed control at 125 g/ha: 125 g ai/ha; for pest or weed control at 500 g/ha: 500 g ai/ha
[10] = test system: ducksalad (Heteranthera limosa); assay: Test B flooded paddy test; conditions: Heteranthera limosa, Flood, 250 g ai/ha; scale of 0 to 100 where 0 is no effect and 100 is complete control; read-out: Ducksalad plant response rating
How it was run: (§2)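 2-leaf plants; pots flooded 3 cm over soil; cpd added to paddy water; depth held; greenhouse 13–15 d; visual rating vs controls, 0 = no effect, 100 = complete control.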

rice (Oryra sativa) = assay: Test B flooded paddy test; conditions: Oryza sativa, Flood, 250 g ai/ha; scale of 0 to 100 where 0 is no effect and 100 is complete control; read-out: Rice plant response rating
How it was run: as §2

[11] = test system: barnyardgrass (Echinochloa crus-galli); assay: Test B flooded paddy test; conditions: Echinochloa crus-galli, Flood, 250 g ai/ha; scale of 0 to 100 where 0 is no effect and 100 is complete control; read-out: Barnyardgrass plant response rating
How it was run: as §2

[12] = test system: sedge, umbrella (small-flower umbrella sedge, Cyperus difformis); assay: Test B flooded paddy test; conditions: Cyperus difformis, 250 g ai/ha, Flood, read-out: Sedge, Umbrella plant response rating
How it was run: as §2

[13] = Postemergence, visual injury after approximately 10 d, 0 to 100 scale where 0 is no effect and 100 is complete control, read-out: Plant response rating, Ragweed
[14] = Postemergence, visual injury after approximately 10 d, 0 to 100 scale where 0 is no effect and 100 is complete control, read-out: Plant response rating, Barnyardgrass
[15] = Postemergence, visual injury after approximately 10 d, 0 to 100 scale where 0 is no effect and 100 is complete control, read-out: Plant response rating, Galium
[16] = Postemergence, visual injury after approximately 10 d, 0 to 100 scale where 0 is no effect and 100 is complete control, read-out: Plant response rating, Pigweed
[17] = Postemergence, visual injury after approximately 10 d, 0 to 100 scale where 0 is no effect and 100 is complete control, read-out: Plant response rating, Blackgrass
[18] = Postemergence, visual injury after approximately 10 d, 0 to 100 scale where 0 is no effect and 100 is complete control, read-out: Plant response rating, Kochia
[19] = Postemergence, visual injury after approximately 10 d, 0 to 100 scale where 0 is no effect and 100 is complete control, read-out: Plant response rating, Foxtail, Giant
[20] = Postemergence, visual injury after approximately 10 d, 0 to 100 scale where 0 is no effect and 100 is complete control, read-out: Plant response rating, Wheat
[21] = Postemergence, visual injury after approximately 10 d, 0 to 100 scale where 0 is no effect and 100 is complete control, read-out: Plant response rating, Ryegrass, Italian
[22] = preemergence, 0 to 100 scale where 0 is no effect and 100 is complete control, read-out: Pigweed plant response rating
[23] = Preemergence, visual injury vs untreated controls after approximately 10 d, read-out: Pigweed plant response rating (0 to 100 scale where 0 is no effect and 100 is complete control)
[24] = scale of 0 to 100 where 0 is no effect and 100 is complete control
[25] = postemergence, visual injury rating after approximately 10 d, read-out: Ragweed plant response rating (0 to 100 scale, 0 no effect, 100 complete control)
[26] = postemergence, visual injury rating after approximately 10 d, read-out: Barnyardgrass plant response rating (0 to 100 scale, 0 no effect, 100 complete control)
[27] = postemergence, visual injury rating after approximately 10 d, read-out: Galium plant response rating (0 to 100 scale, 0 no effect, 100 complete control)
[28] = postemergence, visual injury rating after approximately 10 d, read-out: Pigweed plant response rating (0 to 100 scale, 0 no effect, 100 complete control)
[29] = postemergence, visual injury rating after approximately 10 d, read-out: Blackgrass plant response rating (0 to 100 scale, 0 no effect, 100 complete control)
[30] = postemergence, visual injury rating after approximately 10 d, read-out: Kochia plant response rating (0 to 100 scale, 0 no effect, 100 complete control)
[31] = postemergence, visual injury rating after approximately 10 d, read-out: Foxtail, Giant plant response rating (0 to 100 scale, 0 no effect, 100 complete control)
[32] = postemergence, visual injury rating after approximately 10 d, read-out: Wheat plant response rating (0 to 100 scale, 0 no effect, 100 complete control)
[33] = postemergence, visual injury rating after approximately 10 d, read-out: Ryegrass, Italian plant response rating (0 to 100 scale, 0 no effect, 100 complete control)

SMILES	pest or weed control at 125 g/ha [1, 13] [%]	pest or weed control at 125 g/ha [2, 14] [%]	pest or weed control at 125 g/ha [3, 15] [%]	pest or weed control at 125 g/ha [4, 16] [%]	pest or weed control at 125 g/ha [5, 17] [%]	pest or weed control at 125 g/ha (Kochia (Kochia scoparia); [18]) [%]	pest or weed control at 125 g/ha [6, 19] [%]	Corn plant response rating (crop injury, 0 = no effect, 100 = complete kill) at 125 g/ha (corn (Zea mays)) [%]	plant injury at 125 g/ha [7, 20] [%]	pest or weed control at 125 g/ha [8, 21] [%]	pest or weed control at 250 g/ha [10] [%]	pest or weed control at 250 g/ha (rice (Oryra sativa)) [%]	pest or weed control at 250 g/ha [11] [%]	pest or weed control at 125 g/ha [9, 22] [%]	pest or weed control at 500 g/ha [9, 23] [%]	pest or weed control at 250 g/ha [12, 24] [%]	pest or weed control at 125 g/ha [1, 25] [%]	pest or weed control at 125 g/ha [2, 26] [%]	pest or weed control at 125 g/ha [3, 27] [%]	pest or weed control at 125 g/ha [4, 28] [%]	also measured
CN1CC[C@H](c2ccc(OC(F)(F)F)cc2)[C@@H](C(=O)Nc2ccccc2C(F)(F)F)C1=O [Compound 998]	0	0	0	0	0	0	0	0	0	0	0	0	0	–	–	–	–	–	–	–	pest or weed control at 125 g/ha ([9]; Preemergence, visual injury rating after approximately 10 d, read-out: Pigweed plant response rating (0 to 100 scale, 0 is no effect, 100 is complete control)): 0%; pest or weed control at 500 g/ha ([9]; preemergence, visual injury rating about 10 d after treatment, 0 to 100 scale (0 no effect, 100 complete control), read-out: Pigweed plant response rating): 0%; pest or weed control at 250 g/ha ([12]; 0 to 100 scale where 0 is no effect and 100 is complete control): 0%
CN1CC[C@H](c2cccc(Cl)c2)[C@@H](C(=O)Nc2cccc(Cl)c2F)C1=O [Compound 924]	0	90	0	0	0	0	90	0	0	0	70	0	50	0	0	0	–	–	–	–	–
CCc1cc([C@H]2CNC(=O)[C@@H]2C(=O)Nc2ccccc2F)cs1 [Compound 913]	–	–	–	–	–	–	–	–	–	–	90	0	0	0	0	0	30	90	30	0	pest or weed control at 125 g/ha [5, 29]: 0%; pest or weed control at 125 g/ha (Kochia (Kochia scoparia); [30]): 0%; pest or weed control at 125 g/ha [6, 31]: 30%; plant injury at 125 g/ha (corn (Zea mays)): 0%; plant injury at 125 g/ha [7, 32]: 0%; pest or weed control at 125 g/ha [8, 33]: 0%
CN1C[C@H](c2cc(F)cc(F)c2)[C@@H](C(=O)Nc2ccc(C(F)(F)F)cn2)C1=O [Compound 869]	–	–	–	–	–	–	–	–	–	–	60	0	0	0	0	0	0	80	0	0	pest or weed control at 125 g/ha [5, 29]: 0%; pest or weed control at 125 g/ha (Kochia (Kochia scoparia); [30]): 0%; pest or weed control at 125 g/ha [6, 31]: 60%; plant injury at 125 g/ha (corn (Zea mays)): 0%; plant injury at 125 g/ha [7, 32]: 0%; pest or weed control at 125 g/ha [8, 33]: 0%

— patent publication US12077503B2, “Substituted cyclic amides and their use as herbicides” (FMC CORPORATION, priority 2015, dated 2024)
